Results published in BindingDB's records for doi:10.1021/jo015665d (Merck Research Laboratories, 2001).
pIC50: −log10 of the molar value.

Biological target: Polymerase acidic protein (Influenza A virus (strain A/Puerto Rico/8/1934 H1N1), UniProt P03433)
Experiment: Inhibition of cap 1 ALMV primed Influenza transcriptase

SMILES	pIC50
CC(C)C=c1[nH]c(=Cc2ccc(F)cc2)c(=O)[nH]c1=O [3-(4-fluorobenzylidene)-5-isobutylpyrazine-2,6(1H,3H)-dione]	< 3.70
COCOn1c(=O)c(=CC(C)C)[nH]c(=CC(C)C)c1=O [(3Z)-5-isobutyl-1-(methoxymethoxy)-3-(2-methylpropylidene)pyrazine-2,6(1H,3H)-dione]	< 3.70
COCOn1c(=O)c(=Cc2ccccc2)[nH]c(=CC(C)C)c1=O	< 3.70
COCOn1c(=O)c(=Cc2ccc(F)cc2)[nH]c(=CC(C)C)c1=O	< 3.70
COCOn1c(=O)c(=Cc2ccccc2F)[nH]c(=CC(C)C)c1=O	< 3.70
COCOn1c(=O)c(=Cc2cccc(F)c2)[nH]c(=CC(C)C)c1=O	< 3.70
COCOn1c(=O)c(=Cc2ccc(OC)cc2)[nH]c(=CC(C)C)c1=O	< 3.70
COCOn1c(=O)c(=Cc2ccccc2)[nH]c(=Cc2ccc(OC)cc2)c1=O	< 3.70
COCOn1c(=O)c(=Cc2ccccc2)[nH]c(=Cc2ccc(F)cc2)c1=O	< 3.70
